The text below walks through data of patent publication US6117869A, “Compounds for and methods of inhibiting matrix metalloproteinases” (Warner-Lambert Company, priority 1999, dated 2000).

The subject of assay [1] is experimental allergic encephalomyelitis (EAE). The following applies: dose dependent; cited from earlier work.
In another assay the test system is pig articular cartilage. To be noted: cited from earlier work.
For the next assay, the system named is bovine nasal cartilage. The following applies: cited from earlier work.
In assay [2] the test system is human ovarian carcinoma xenografts. To be noted: mice bearing human ovarian carcinoma xenografts; cited from earlier work.
The next assay addresses T1, MMP-3CD (Homo sapiens, UniProt P08254).
T1 construct: Stromelysin Catalytic Domain (SCD) at 10 nM; made in house; host or cells: Escherichia coli
Description: Thiopeptolide assay, stromelysin-1 catalytic domain (SCD). It counts as biochemical. The following applies: 10 nM, pH 6.0, 100 μM thiopeptolide substrate. How it is done: (§1) IC50 values were determined using a thiopeptolide substrate, Ac-Pro-Leu-Gly-thioester-Leu-Leu-Gly-OEt (Ye Q. Z., Johnson L. L., Hupe D. J., and Baragi V., "Purification and Characterization of the Human Stromelysin Catalytic Domain Expressed in Escherichia coli," Biochemistry,1992;31:11231-11235). MMP-1, MMP-7, and MMP-13 activity was assayed in a method similar to MMP-2 and MMP-3 (SCD and GCD). MMP-1 can be obtained from Washington University School of Medicine, St. Louis, Mo. MMP-7 can be obtained in accordance with the known procedure set forth by Ye Q. Z., Johnson L. L., and Baragi V., "Gene Syntheses and Expression in E. coli for PUMP, a Human Matrix Metalloproteinase," Biochem. and Biophys. Res. Comm., 1992;186:143-149. MMP13 can be obtained in accordance with the known procedure set forth by Freije J. M. P. et al., "Molecular Cloning and Expression of Collegenase-3, a Novel Human Matrix Metalloproteinase Produced by Breast Carcinomas," J. Bio. Chem., 1994;269:16766-16773.
(§2) Hydrolysis of the thiopeptolide substrate Ac-Pro-Leu-Gly-thioester-Leu-Leu-Gly-OEt (Bachem) is used as the primary screen to determine IC50 values for MMP inhibitors. A 100 μL reaction contains 1 mM 5,5'-dithiobis(2-nitrobenzoic acid) (DTNB), 100 μM substrate, 0.1% BRIJ® 35, PROTEIN GRADE®, Detergent, 10% solution, Sigma, St. Louis, Mo. [polyoxyethyleneglycol dodecyl ether; polyoxyethylene (23) lauryl ether], enzyme, and inhibitor in the appropriate reaction buffer. Activated full-length enzymes are assayed at 5 nM, Stromelysin Catalytic Domain (SCD) at 10 nM, and Gelatinase A Catalytic Domain (GaCD) at 1 nM. Inhibitors are screened from 100 μM to 1 nM. Full-length enzymes (MMP-1 and MMP-7) are assayed in 50 mM HEPES, 10 mM CaCl2, pH 7.0; SCD in 50 mM MES, 10 mM CaCl2, pH 6.0; and GaCD in 50 mM MOPS, 10 mM CaCl2, 10 μM ZnCl2, pH 7.0. The change in absorbance at 405 nm is monitored on a ThermoMax microplate reader at room temperature continuously for 20 minutes.

For a further assay, the target named is MMP-2CD. Description: Thiopeptolide assay, gelatinase A catalytic domain (GCD/GaCD). In kind it is biochemical. To be noted: 1 nM, pH 7.0, 100 μM thiopeptolide substrate. On the procedure: as §1, §2
In the next assay the target is MMP-9 (Homo sapiens, UniProt P14780). As to the kind of experiment: Thiopeptolide assay, MMP-9. To be noted: thiopeptolide substrate. It counts as biochemical. How it is done:
[The source words this procedure for another target and reports this target under the same test.] as §1, §2

Another assay has as its system MMP-14CD. Description: Thiopeptolide assay, MMP-14CD. It counts as biochemical. To be noted: catalytic domain; thiopeptolide substrate. On the procedure:
as §1, §2

The target in the next assay is T2, MMP-1 (Homo sapiens, UniProt P03956).
T2 construct: purchased Washington University School of Medicine, St. Louis, Mo
T2 sequence (P03956 100-469): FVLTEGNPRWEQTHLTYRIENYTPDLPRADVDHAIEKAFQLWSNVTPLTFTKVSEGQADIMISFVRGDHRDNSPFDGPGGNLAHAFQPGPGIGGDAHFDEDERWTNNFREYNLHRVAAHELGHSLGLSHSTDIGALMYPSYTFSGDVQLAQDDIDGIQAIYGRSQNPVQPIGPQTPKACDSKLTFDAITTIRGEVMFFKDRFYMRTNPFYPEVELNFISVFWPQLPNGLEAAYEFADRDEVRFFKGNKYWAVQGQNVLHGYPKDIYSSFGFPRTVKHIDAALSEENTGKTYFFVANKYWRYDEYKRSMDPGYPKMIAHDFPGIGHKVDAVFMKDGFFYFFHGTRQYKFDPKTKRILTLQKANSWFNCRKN
Description: Thiopeptolide assay, MMP-1. In kind it is biochemical. The following applies: full-length enzyme, 5 nM; pH 7.0; 100 μM thiopeptolide substrate. How it is done:
as §1, §2

The next assay concerns MMP-13CD. Description: Thiopeptolide assay, MMP-13CD. In kind it is biochemical, Human. To be noted: catalytic domain; thiopeptolide substrate. On the procedure: as §1, §2
In the next assay the target is T3, MMP-7 (Homo sapiens, UniProt P09237).
T3 construct: made in house; host or cells: E. coli
T3 sequence (P09237 95-267): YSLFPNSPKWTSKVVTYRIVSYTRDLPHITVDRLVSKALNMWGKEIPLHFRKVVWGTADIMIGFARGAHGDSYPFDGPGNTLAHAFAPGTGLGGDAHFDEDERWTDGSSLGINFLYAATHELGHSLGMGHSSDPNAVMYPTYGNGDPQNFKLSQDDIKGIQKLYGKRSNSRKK
As to the kind of experiment: Thiopeptolide assay, MMP-7. In kind it is biochemical. The following applies: full-length enzyme, 5 nM; pH 7.0; 100 μM thiopeptolide substrate. How it is done: as §1, §2

MMP-9, sequence (P14780 94-707): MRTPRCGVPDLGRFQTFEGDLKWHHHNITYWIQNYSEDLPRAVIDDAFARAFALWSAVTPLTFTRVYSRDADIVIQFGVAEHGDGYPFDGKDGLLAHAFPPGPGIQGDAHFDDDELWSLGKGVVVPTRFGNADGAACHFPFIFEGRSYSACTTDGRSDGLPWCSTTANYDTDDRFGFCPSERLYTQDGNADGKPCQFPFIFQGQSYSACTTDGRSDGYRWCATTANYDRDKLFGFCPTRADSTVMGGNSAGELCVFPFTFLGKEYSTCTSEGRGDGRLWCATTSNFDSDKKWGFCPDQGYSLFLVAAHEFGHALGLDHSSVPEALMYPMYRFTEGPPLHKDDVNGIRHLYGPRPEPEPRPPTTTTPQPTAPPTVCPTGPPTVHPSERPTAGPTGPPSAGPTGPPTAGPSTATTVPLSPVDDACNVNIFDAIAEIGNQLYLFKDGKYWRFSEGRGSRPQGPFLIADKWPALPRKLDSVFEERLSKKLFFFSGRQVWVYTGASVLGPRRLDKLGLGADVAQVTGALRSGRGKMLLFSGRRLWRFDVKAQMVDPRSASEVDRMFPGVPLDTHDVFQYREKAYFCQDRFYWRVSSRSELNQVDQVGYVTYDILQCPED
T1 sequence (P08254 100-272 limits assumed): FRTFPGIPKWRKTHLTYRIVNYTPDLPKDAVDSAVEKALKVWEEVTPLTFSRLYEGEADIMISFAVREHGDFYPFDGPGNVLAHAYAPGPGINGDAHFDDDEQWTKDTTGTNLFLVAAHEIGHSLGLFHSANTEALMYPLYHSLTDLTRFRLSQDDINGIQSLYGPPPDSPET

For the compound `CNC(=O)[C@H](Cc1c[nH]c2ccccc12)NC(=O)[C@@H](CC(=O)NO)CC(C)C` [GM6001], the “development or clinical expression of EAE” value in [1] is listed as “suppressed the development or reversed the clinical expression”.

“TIMP-1: tissue inhibitors of metalloproteinases”: the “formation of collagen and proteoglycan fragments” value in the assay on pig articular cartilage is “prevented the formation of collagen fragments, but not proteoglycan fragments”; with bovine nasal cartilage, “prevented the formation of collagen fragments, but not proteoglycan fragments”.

Take `CNC(=O)[C@H](Cc1ccccc1)NC(=O)[C@H](CC(C)C)[C@H](CSc1cccs1)C(=O)NO` [BB-94]: in [2], the survival result is on record as “prolonged the survival” and the tumor burden result is “decreased the tumor burden”.

Take `O=C(O)[C@H](CO)NS(=O)(=O)c1ccc2c(c1)Sc1ccccc1O2` [Example 5, (S)-3-Hydroxy-2-(phenoxathiine-2-sulfonylamino)-propionic acid]: the IC50 was 0.18 µM against MMP-3CD; 0.069 µM on MMP-2CD; 82 µM against MMP-9; 0.39 µM in the assay with MMP-14CD; greater than 100 µM against MMP-1; 1.8 µM in the assay on MMP-13CD. In addition, the IC50 against MMP-7 was determined as 23 µM.

In the case of `CC(C)[C@H](NS(=O)(=O)c1ccc2c(c1)Sc1ccccc1S2)C(=O)O` [Example 1, (S)-3-Methyl-2-((thianthren-2-ylsulfonyl)amino)butanoic acid], the IC50 was 6.9 µM against MMP-3CD; 15.4 µM on MMP-2CD; greater than 100 µM against MMP-9; 40 µM in the assay with MMP-14CD; greater than 100 µM at MMP-1; greater than 100 µM in the assay with MMP-13CD. The same compound displayed an IC50 on MMP-7 of 27.6 µM.
